Test results: patent publication US20260137819A1 (Radionetics Oncology, Inc., priority 2022, published 2026)

Each molecule was assayed against T1, human follicle-stimulating hormone receptor (FSHR) (Homo sapiens, UniProt P23945) (assay: Measurement of agonist cAMP production by activation of human FSHR). Settings: CHO-K1 human FSHR cells, 30 minutes at 37° C., HTRF cAMP kit; read-out: hFSHR Agonist cAMP EC50.
T1 construct: host or cells: CHO-K1
T1 sequence (P23945 18-695): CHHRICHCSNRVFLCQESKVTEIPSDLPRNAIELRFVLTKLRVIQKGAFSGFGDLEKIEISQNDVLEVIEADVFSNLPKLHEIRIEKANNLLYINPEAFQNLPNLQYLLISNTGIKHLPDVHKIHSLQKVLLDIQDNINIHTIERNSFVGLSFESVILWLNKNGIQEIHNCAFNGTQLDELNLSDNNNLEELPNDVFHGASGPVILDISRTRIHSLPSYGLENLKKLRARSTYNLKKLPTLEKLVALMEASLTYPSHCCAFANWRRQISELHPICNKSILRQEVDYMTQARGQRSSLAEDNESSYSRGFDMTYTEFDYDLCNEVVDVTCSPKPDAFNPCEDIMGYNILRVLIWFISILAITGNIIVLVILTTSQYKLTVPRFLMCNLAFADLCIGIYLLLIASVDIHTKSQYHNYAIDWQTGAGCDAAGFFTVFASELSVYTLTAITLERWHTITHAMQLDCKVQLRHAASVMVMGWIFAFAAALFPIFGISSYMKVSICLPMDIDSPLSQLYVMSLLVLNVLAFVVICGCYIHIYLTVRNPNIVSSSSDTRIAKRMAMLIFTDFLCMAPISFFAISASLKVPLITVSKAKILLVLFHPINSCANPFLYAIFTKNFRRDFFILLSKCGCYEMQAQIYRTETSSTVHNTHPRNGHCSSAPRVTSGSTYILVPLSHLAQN
Format: cell-based
Procedure: Measurement of agonist cAMP production by activation of human FSHR
Two days prior to the assay, 5,000 CHO—K1 human FSHR cells (Eurofins #95-0119C2) stably expressing the functional human follicle-stimulating hormone receptor were plated in a 96-well tissue culture-treated plate in growth media supplemented with the appropriate selection agent. […] The cells were incubated for 30 minutes at 37° C. (the final concentrations of the compound ranged from 0-10,000 nM). After the 30-minute incubation at 37° C., lysis buffer (HRTF CAMP kit, Cisbio #62AM5PEB)w as added directly to the cells and incubated for 30-minutes at room temperature. The diluted lysate was transferred and CAMP detection and visualization antibodies (HRTF CAMP kit, Cisbio #62AM5PEB) were added and incubated for 1-24 hours at room temperature. The time-resolved fluorescent signal was read with a Tecan M1000Pro (Tecan) multiplate reader. The intracellular cAMP concentrations were calculated by regression to a standard curve and were plotted vs. the concentration of the agonists. The concentration of test compound or FSH required to generate a half maximal response EC50 were calculated using standard curve-fitting methods. All data manipulations were performed using GraphPad Prism v9.3.1 (GraphPad, San Diego, CA).
Molecule `COc1cc2c(cc1-c1cccc(/C(C)=N/OCCNC(=O)CN(C)C(=O)CN(C)C(=O)CN3CCN(CC(=O)O)CCN(CC(=O)O)CCN(CC(=O)O)CC3)c1)-c1c(c(C(=O)N3CCOCC3(C)C)nn1-c1cc(Cl)cc(Cl)c1)CO2` [Compound 42, (E)-2,2′,2″-(10-(1-(3-(1-(3,5-dichlorophenyl)-3-(3,3-dimethylmorpholine-4carbonyl)-7-methoxy-1,4-dihydrochromeno|4,3-c|pyrazol-8-yl)phenyl)-9,12-dimethyl-7,10,13-trioxo-3-oxa-2,6,9,12-tetraazatetradec-1-en-14-yl)-1,4,7,10-tetraazacyclododecane-1,4,7-triyl)triacetic acid] has an EC50 of 10 to 100 nM. Work on `COc1cc2c(cc1-c1cccc(NC(=O)CCCCCNC(=O)C(CS(=O)(=O)O)NC(=O)CN3CCN(CC(=O)O)CCN(CC(=O)O)CCN(CC(=O)O)CC3)c1)-c1c(c(C(=O)N3CCOCC3(C)C)nn1-c1cc(Cl)cc(Cl)c1)CO2` (stereo in doubt) [Compound 64, (R)-2,2′,2″-(10-(2-((1-((6-((3-(1-(3,5-dichlorophenyl)-3-(3,3-dimethylmorpholine-4-carbonyl)-7-methoxy-1,4-dihydrochromeno[4,3-c]pyrazol-8-yl)phenyl)amino)-6-oxohexyl)amino)-1-oxo-3-sulfopropan-2-yl)amino)-2-oxoethyl)-1,4,7,10-tetraazacyclododecane-1,4,7-triyl)triacetic acid] yielded an EC50 of less than 10 nM. With `COc1cc2c(cc1-c1cccc(NC(=O)CCOCCOCCOCCOCCNC(=O)CN3CCN(CC(=O)O)CCN(CC(=O)O)CCN(CC(=O)O)CC3)c1)-c1c(c(C(=O)N3CCOCC3(C)C)nn1-c1cc(Cl)cc(Cl)c1)CO2` [Compound 17, 2,2′,2″-(10-(18-((3-(1-(3,5-dichlorophenyl)-3-(3,3-dimethylmorpholine-4-carbonyl)-7-methoxy-1,4-dihydrochromeno|4,3-c|pyrazol-8-yl)phenyl)amino)-2,18-dioxo-6,9,12,15-tetraoxa-3-azaoctadecyl)-1,4,7,10-tetraazacyclododecane-1,4,7-triyl)triacetic acid] the EC50 was less than 10 nM. `COc1cc2c(cc1-c1cccc(OCCCNC(=O)[C@@H](CCC(=O)O)NCCOCCNC(=O)[C@H](CS(=O)(=O)O)NC(=O)CN3CCN(CC(=O)O)CCN(CC(=O)O)CCN(CC(=O)O)CC3)c1)-c1c(c(C(=O)N3CCOCC3(C)C)nn1-c1cc(Cl)cc(Cl)c1)CO2` [Compound 74, 2,2′,2″-(10-((4R,13R)-13-(2-carboxyethyl)-18-(3-(1-(3,5-dichlorophenyl)-3(3,3-dimethylmorpholine-4-carbonyl)-7-methoxy-1,4-dihydrochromeno[4,3-c]pyrazol-8-yl)phenoxy)-2,5,14-trioxo-4-(sulfomethyl)-9-oxa-3,6,12,15-tetraazaoctadecyl)-1,4,7,10-tetraazacyclododecane-1,4,7-triyl)triacetic acid--2,2,2-trifluoroacetic acid (1/1)] was tested, and the EC50 was 10 to 100 nM. Work on `COc1cc2c(cc1-c1cccc(NC(=O)C3CCC(CNC(=O)C(CS(=O)(=O)O)NC(=O)CN4CCN(CC(=O)O)CCN(CC(=O)O)CCN(CC(=O)O)CC4)CC3)c1)-c1c(c(C(=O)N3CCOCC3(C)C)nn1-c1cc(Cl)cc(Cl)c1)CO2` [Compound 65, 2,2′,2″-(10-(2-(((R)-1-((((1r,4R)-4-((3-(1-(3,5-dichlorophenyl)-3-(3,3-dimethylmorpholine-4-carbonyl)-7-methoxy-1,4-dihydrochromeno[4,3-c]pyrazol-8-yl)phenyl)carbamoyl)cyclohexyl)methyl)amino)-1-oxo-3-sulfopropan-2-yl)amino)-2-oxoethyl)-1,4,7,10-tetraazacyclododecane-1,4,7-triyl)triacetic acid] yielded an EC50 of 10 to 100 nM. `COc1cc2c(cc1-c1cccc(/C(C)=N/OCCNC(=O)CN3CCN(CC(=O)O)CCN(CC(=O)O)CCN(CC(=O)O)CC3)c1)-c1c(c(C(=O)N3CCOCC3(C)C)nn1-c1cc(Cl)cc(Cl)c1)CO2` [Compound 39] gave an EC50 of 10 to 100 nM. `COc1cc2c(cc1-c1cccc(NC(=O)CN(C)C(=O)CN(C)C(=O)CN(C)C(=O)CN(C)C(=O)CN(C)C(=O)CCNC(=O)CN3CCN(CC(=O)O)CCN(CC(=O)O)CCN(CC(=O)O)CC3)c1)-c1c(c(C(=O)N3CCOCC3(C)C)nn1-c1cc(Cl)cc(Cl)c1)CO2` [Compound 22] showed an EC50 of less than 10 nM. `COc1cc2c(cc1-c1cncc(OCCCNC(=O)[C@@H](CCCNC(=N)N)NC(=O)CCNC(=O)CN3CCN(CC(=O)O)CCN(CC(=O)O)CCN(CC(=O)O)CC3)c1)-c1c(c(C(=O)N3CCCN(C(=O)C4CCC4)CC3)nn1-c1cccs1)CO2` [Compound 78, (R)-2,2′,2″-(10-(2-((3-((1-((3-((5-(3-(4-(cyclobutanecarbonyl)-1,4-diazepane-1carbonyl)-7-methoxy-1-(thiophen-2-yl)-1,4-dihydrochromeno|4,3-c|pyrazol-8-yl)pyridin-3-yl)oxy)propyl)amino)-5-guanidino-1-oxopentan-2-yl)amino)-3-oxopropyl)amino)-2-oxoethyl)-1,4,7,10-tetraazacyclododecane-1,4,7-triyl)triacetic acid--2,2,2-trifluoroacetic acid (1/1)] showed an EC50 of less than 10 nM. In the case of `COc1cc2c(cc1-c1cncc(NC(=O)CCOCCOCCNC(=O)C3OC(CNC(=O)CN4CCN(CC(=O)O)CCN(CC(=O)O)CCN(CC(=O)O)CC4)C(O)C(O)C3O)c1)-c1c(c(C(=O)N3CCOCC3(C)C)nn1-c1cc(Cl)cc(Cl)c1)CO2` [Compound 54, 2,2′,2″-(10-(2-((((2S,3R,4R,5R,6S)-6-((2-(2-(3-((5-(1-(3,5-dichlorophenyl)-3-(3,3-dimethylmorpholine-4-carbonyl)-7-methoxy-1,4-dihydrochromeno[4,3-c]pyrazol-8-yl)pyridin-3-yl)amino)-3-oxopropoxy)ethoxy)ethyl)carbamoyl)-3,4,5-trihydroxytetrahydro-2H-pyran-2-yl)methyl)amino)-2-oxoethyl)-1,4,7,10-tetraazacyclododecane-1,4,7-triyl)triacetic acid--2,2,2-trifluoroacetic acid (1/1)], the EC50 is reported as less than 10 nM. In the case of `COc1cc2c(cc1-c1cccc(NC(=O)NCCNC(=O)[C@H](N)CCCCNC(=O)CN3CCN(CC(=O)O)CCN(CC(=O)O)CCN(CC(=O)O)CC3)c1)-c1c(c(C(=O)N3CCOCC3(C)C)nn1-c1cc(Cl)cc(Cl)c1)CO2` [Compound 23], the EC50 is reported as less than 10 nM. `COc1cc2c(cc1-c1cccc(NC(=O)CCOCCOCCNC(=O)CN3CCN(CC(=O)O)CCN(CC(=O)O)CCN(CC(=O)O)CC3)c1)-c1c(c(C(=O)N3CCOCC3(C)C)nn1-c1cc(Cl)cc(Cl)c1)CO2` [Compound 19, 2,2′,2″-(10-(2-((2-(2-(3-((3-(1-(3,5-dichlorophenyl)-3-(3,3-dimethylmorpholine-4-carbonyl)-7-methoxy-1,4-dihydrochromeno[4,3-c]pyrazol-8-yl)phenyl)amino)-3-oxopropoxy)ethoxy)ethyl)amino)-2-oxoethyl)-1,4,7,10-tetraazacyclododecane-1,4,7-triyl)triacetic acid] was tested, and the EC50 was less than 10 nM. Molecule `COc1cc2c(cc1-c1cncc(NC(=O)CN(C)C(=O)CN(C)C(=O)CN(C)C(=O)CN(C)C(=O)CN(C)C(=O)CCNC(=O)CN3CCN(CC(=O)O)CCN(CC(=O)O)CCN(CC(=O)O)CC3)c1)-c1c(c(C(=O)N3CCOCC3(C)C)nn1-c1cc(F)cc(F)c1)CO2` [Compound 59] has an EC50 greater than 100 nM.
